The record followed here is patent US12049450B2, “Pyridyloxy-carboxylate derivative and preparation method therefor, herbicidal composition, and use” (Qingdao Kingagroot Chemical Compound Co., Ltd., priority 2018, dated 2024).

Holding throughout (test): Post-emergence test experiment (greenhouse pot, spray at 2-3 leaf stage)
What all share (format): in vivo
Common to all, as to conditions: 1000 g/ha; post-emergence spray at 2-3 leaf stage; assessed after 3 weeks; fresh weight inhibition rate

For one test, the system named is Abutilon theophrasti. The text has this: (§1) The activity level standard of harmful plants destruction (i. e. growth inhibition rate) is as follows: • Level 5: the growth inhibition rate is greater than 85%; • Level 4: the growth inhibition rate is equal to or greater than 60% and less than 85%; • Level 3: the growth inhibition rate is equal to or greater than 40% and less than 60%; • Level 2: the growth inhibition rate is equal to or greater than 20% and less than 40%; • Level 1: the growth inhibition rate is equal to or greater than 5% and less than 20%; • Level 0: the growth inhibition rate is less than 5%;
(§2) The above described growth inhibition rate is fresh weight inhibition rate.
(§3) Post-emergence test experiment: Monocotyledonous and dicotyledonous weed seeds and main crop seeds (i. e. wheat, corn, rice, soybean, cotton, oilseed, millet and sorghum.) were put into a plastic pot loaded with soil. Then covered with 0.5-2 cm soil, the seeds were allowed to grow in good greenhouse environment. The test plants were treated at 2-3 leaf stage 2 weeks after sowing. The test compounds of the invention were dissolved with acetone respectively, then added with tween-80, and using 1.5 liters per hectare of an emulsible concentrate of methyl oleate as a synergist, and diluted by certain amount of water to certain concentration. The solution was sprayed to the plants with a sprayer. Then the plants were cultured for 3 weeks in the greenhouse, and the experiment result of weed controlling effect after 3 weeks was listed in tables 3-4.

Another test deals with Digitaria sanguinalis.
Text: as §1, §2, §3

The test system of a further test is Echinochloa crusgalli.
Text: as §1, §2, §3

For the next test, the system named is Galium spurium.
Text: as §1, §2, §3

In another test the test system is Monochoria vaginalis.
Text: as §1, §2, §3

As to `CCOC(=O)Nc1cccc(CSC(=O)C(C)Oc2nc(F)c(Cl)c(N)c2Cl)c1` (racemic) [Compound 109], the “Activity level (growth inhibition rate) Abutilon theophrasti” value in the test on Abutilon theophrasti is listed as 5 (Level 5: the growth inhibition rate is greater than 85%). Moreover, the “Activity level (growth inhibition rate) Digitaria sanguinalis” value in the test with Digitaria sanguinalis is recorded as 5 (Level 5: the growth inhibition rate is greater than 85%). Moreover, the “Activity level (growth inhibition rate) Echinochloa crusgalli” value in the test on Echinochloa crusgalli is reported as 5 (Level 5: the growth inhibition rate is greater than 85%). The “Activity level (growth inhibition rate) Galium spurium” value in the test with Galium spurium is given as 5 (Level 5: the growth inhibition rate is greater than 85%). Also, in the test with Monochoria vaginalis, the “Activity level (growth inhibition rate) Monochoria Vaginalis” value is 5 (Level 5: the growth inhibition rate is greater than 85%).
With `COCOc1cccc(C)c1COC(=O)C(C)Oc1nc(F)c(Cl)c(N)c1Cl` (racemic) [Compound 110], the “Activity level (growth inhibition rate) Abutilon theophrasti” value with Abutilon theophrasti is on record as 5 (Level 5: the growth inhibition rate is greater than 85%). Besides, the “Activity level (growth inhibition rate) Digitaria sanguinalis” value with Digitaria sanguinalis was 5 (Level 5: the growth inhibition rate is greater than 85%). Moreover, the “Activity level (growth inhibition rate) Echinochloa crusgalli” value in the test on Echinochloa crusgalli was 5 (Level 5: the growth inhibition rate is greater than 85%). Moreover, the “Activity level (growth inhibition rate) Galium spurium” value in the test with Galium spurium is 5 (Level 5: the growth inhibition rate is greater than 85%). Moreover, the “Activity level (growth inhibition rate) Monochoria Vaginalis” value in the test with Monochoria vaginalis was 5 (Level 5: the growth inhibition rate is greater than 85%).
Consider `CC(Oc1nc(F)c(Cl)c(N)c1Cl)C(=O)OCc1cc(Br)cc(C=O)c1` (racemic) [Compound 111], for which, in the test on Abutilon theophrasti, the “Activity level (growth inhibition rate) Abutilon theophrasti” value is recorded as 5 (Level 5: the growth inhibition rate is greater than 85%). The “Activity level (growth inhibition rate) Digitaria sanguinalis” value in the test on Digitaria sanguinalis is on record as 5 (Level 5: the growth inhibition rate is greater than 85%). Further, the “Activity level (growth inhibition rate) Echinochloa crusgalli” value in the test with Echinochloa crusgalli is on record as 5 (Level 5: the growth inhibition rate is greater than 85%). In the test with Galium spurium, the “Activity level (growth inhibition rate) Galium spurium” value is 5 (Level 5: the growth inhibition rate is greater than 85%). Also, the “Activity level (growth inhibition rate) Monochoria Vaginalis” value in the test with Monochoria vaginalis is 5 (Level 5: the growth inhibition rate is greater than 85%).
On to `CC(Oc1nc(F)c(Cl)c(N)c1Cl)C(=O)OCc1cccc(Oc2ccccc2)c1` (racemic) [Compound 114], for which the “Activity level (growth inhibition rate) Abutilon theophrasti” value in the test with Abutilon theophrasti is 5 (Level 5: the growth inhibition rate is greater than 85%). Further, the “Activity level (growth inhibition rate) Digitaria sanguinalis” value in the test with Digitaria sanguinalis is reported as 5 (Level 5: the growth inhibition rate is greater than 85%). For the same compound, the “Activity level (growth inhibition rate) Echinochloa crusgalli” value with Echinochloa crusgalli was 5 (Level 5: the growth inhibition rate is greater than 85%). In addition, the “Activity level (growth inhibition rate) Galium spurium” value in the test with Galium spurium is 5 (Level 5: the growth inhibition rate is greater than 85%). Moreover, the “Activity level (growth inhibition rate) Monochoria Vaginalis” value in the test on Monochoria vaginalis is on record as 5 (Level 5: the growth inhibition rate is greater than 85%).
Turning to `CC(Oc1nc(F)c(Cl)c(N)c1Cl)C(=O)OCc1cccc(-c2cccnc2)c1` (racemic) [Compound 115], the “Activity level (growth inhibition rate) Abutilon theophrasti” value in the test with Abutilon theophrasti is 5 (Level 5: the growth inhibition rate is greater than 85%). Besides, the “Activity level (growth inhibition rate) Digitaria sanguinalis” value in the test on Digitaria sanguinalis is reported as 5 (Level 5: the growth inhibition rate is greater than 85%). In the test on Echinochloa crusgalli, the “Activity level (growth inhibition rate) Echinochloa crusgalli” value is recorded as 5 (Level 5: the growth inhibition rate is greater than 85%). The “Activity level (growth inhibition rate) Galium spurium” value in the test on Galium spurium is 5 (Level 5: the growth inhibition rate is greater than 85%). For the same compound, the “Activity level (growth inhibition rate) Monochoria Vaginalis” value with Monochoria vaginalis was 5 (Level 5: the growth inhibition rate is greater than 85%).
On to `CC(Oc1nc(F)c(Cl)c(N)c1Cl)C(=O)OCc1cccnc1` (racemic) [Compound 116], for which the “Activity level (growth inhibition rate) Abutilon theophrasti” value in the test with Abutilon theophrasti was 5 (Level 5: the growth inhibition rate is greater than 85%). Moreover, the “Activity level (growth inhibition rate) Digitaria sanguinalis” value in the test on Digitaria sanguinalis is 5 (Level 5: the growth inhibition rate is greater than 85%). Moreover, the “Activity level (growth inhibition rate) Echinochloa crusgalli” value with Echinochloa crusgalli was 5 (Level 5: the growth inhibition rate is greater than 85%). In the test with Galium spurium, the “Activity level (growth inhibition rate) Galium spurium” value is 5 (Level 5: the growth inhibition rate is greater than 85%). Further, the “Activity level (growth inhibition rate) Monochoria Vaginalis” value in the test with Monochoria vaginalis is recorded as 5 (Level 5: the growth inhibition rate is greater than 85%).
For `Nc1c(Cl)c(F)nc(OC(C(=O)SCc2ccccc2)c2ccoc2)c1Cl` (stereo not drawn) [Compound 55], the “Activity level (growth inhibition rate) Abutilon theophrasti” value in the test with Abutilon theophrasti was 5 (Level 5: the growth inhibition rate is greater than 85%). In addition, the “Activity level (growth inhibition rate) Galium spurium” value in the test on Galium spurium was 5 (Level 5: the growth inhibition rate is greater than 85%). In addition, the “Activity level (growth inhibition rate) Monochoria Vaginalis” value in the test on Monochoria vaginalis is 5 (Level 5: the growth inhibition rate is greater than 85%).
In the case of `Nc1c(Cl)c(F)nc(OC(C(=O)OCc2ccccc2)c2cscn2)c1Cl` (stereo not drawn) [Compound 56], the “Activity level (growth inhibition rate) Abutilon theophrasti” value in the test on Abutilon theophrasti is reported as 5 (Level 5: the growth inhibition rate is greater than 85%). For the same compound, in the test on Galium spurium, the “Activity level (growth inhibition rate) Galium spurium” value is recorded as 5 (Level 5: the growth inhibition rate is greater than 85%). For the same compound, in the test with Monochoria vaginalis, the “Activity level (growth inhibition rate) Monochoria Vaginalis” value is 5 (Level 5: the growth inhibition rate is greater than 85%).
As for `CCn1nccc1C(Oc1nc(F)c(Cl)c(N)c1Cl)C(=O)OCc1ccccc1` (stereo not drawn) [Compound 57], in the test on Abutilon theophrasti, the “Activity level (growth inhibition rate) Abutilon theophrasti” value is recorded as 5 (Level 5: the growth inhibition rate is greater than 85%). In the test on Galium spurium, the “Activity level (growth inhibition rate) Galium spurium” value is 5 (Level 5: the growth inhibition rate is greater than 85%). Besides, the “Activity level (growth inhibition rate) Monochoria Vaginalis” value in the test with Monochoria vaginalis was 5 (Level 5: the growth inhibition rate is greater than 85%).
Consider `Cc1nn(C)cc1C(Oc1nc(F)c(Cl)c(N)c1Cl)C(=O)SCc1ccccc1` (stereo not drawn) [Compound 58], for which, in the test with Abutilon theophrasti, the “Activity level (growth inhibition rate) Abutilon theophrasti” value is listed as 5 (Level 5: the growth inhibition rate is greater than 85%). In addition, the “Activity level (growth inhibition rate) Galium spurium” value in the test with Galium spurium is 5 (Level 5: the growth inhibition rate is greater than 85%). In the test with Monochoria vaginalis, the “Activity level (growth inhibition rate) Monochoria Vaginalis” value was 5 (Level 5: the growth inhibition rate is greater than 85%).
In the case of `Nc1c(Cl)c(F)nc(OC(C(=O)OCc2ccccc2)c2ccn(C(F)F)n2)c1Cl` (stereo not drawn) [Compound 59], the “Activity level (growth inhibition rate) Abutilon theophrasti” value in the test on Abutilon theophrasti is 5 (Level 5: the growth inhibition rate is greater than 85%). In the test on Galium spurium, the “Activity level (growth inhibition rate) Galium spurium” value was 5 (Level 5: the growth inhibition rate is greater than 85%). For the same compound, in the test on Monochoria vaginalis, the “Activity level (growth inhibition rate) Monochoria Vaginalis” value is recorded as 5 (Level 5: the growth inhibition rate is greater than 85%).
Consider `Nc1c(Cl)c(F)nc(OC(C(=O)OCc2ccccc2)c2ccccc2)c1Cl` (stereo not drawn) [Compound 60], for which the “Activity level (growth inhibition rate) Abutilon theophrasti” value with Abutilon theophrasti is reported as 5 (Level 5: the growth inhibition rate is greater than 85%). The “Activity level (growth inhibition rate) Galium spurium” value in the test on Galium spurium is reported as 5 (Level 5: the growth inhibition rate is greater than 85%). The “Activity level (growth inhibition rate) Monochoria Vaginalis” value in the test with Monochoria vaginalis is recorded as 5 (Level 5: the growth inhibition rate is greater than 85%).
With `Nc1c(Cl)c(F)nc(OC(C(=O)SCc2ccccc2)c2ccc(C(F)(F)F)cc2)c1Cl` (stereo not drawn) [Compound 61], the “Activity level (growth inhibition rate) Abutilon theophrasti” value with Abutilon theophrasti is listed as 5 (Level 5: the growth inhibition rate is greater than 85%). The “Activity level (growth inhibition rate) Galium spurium” value with Galium spurium is 5 (Level 5: the growth inhibition rate is greater than 85%). The “Activity level (growth inhibition rate) Monochoria Vaginalis” value in the test on Monochoria vaginalis was 5 (Level 5: the growth inhibition rate is greater than 85%).
Take `Nc1c(Cl)c(F)nc(OC(C(=O)OCc2ccccc2)c2cccc(Cl)c2)c1Cl` (stereo not drawn) [Compound 62]: the “Activity level (growth inhibition rate) Abutilon theophrasti” value in the test with Abutilon theophrasti was 5 (Level 5: the growth inhibition rate is greater than 85%). The “Activity level (growth inhibition rate) Galium spurium” value in the test on Galium spurium is reported as 5 (Level 5: the growth inhibition rate is greater than 85%). Moreover, the “Activity level (growth inhibition rate) Monochoria Vaginalis” value in the test with Monochoria vaginalis is 5 (Level 5: the growth inhibition rate is greater than 85%).
As for `COc1ccc(C(Oc2nc(F)c(Cl)c(N)c2Cl)C(=O)OCc2ccccc2)c(C)c1` (stereo not drawn) [Compound 63], in the test on Abutilon theophrasti, the “Activity level (growth inhibition rate) Abutilon theophrasti” value was 5 (Level 5: the growth inhibition rate is greater than 85%). Further, the “Activity level (growth inhibition rate) Galium spurium” value in the test on Galium spurium is 5 (Level 5: the growth inhibition rate is greater than 85%). In addition, the “Activity level (growth inhibition rate) Monochoria Vaginalis” value in the test with Monochoria vaginalis is given as 5 (Level 5: the growth inhibition rate is greater than 85%).
In the case of `Nc1c(Cl)c(F)nc(OC(C(=O)OCc2ccccc2)c2cccnc2)c1Cl` (stereo not drawn) [Compound 64], in the test on Abutilon theophrasti, the “Activity level (growth inhibition rate) Abutilon theophrasti” value was 5 (Level 5: the growth inhibition rate is greater than 85%). Also, in the test with Galium spurium, the “Activity level (growth inhibition rate) Galium spurium” value is listed as 5 (Level 5: the growth inhibition rate is greater than 85%). For the same compound, in the test with Monochoria vaginalis, the “Activity level (growth inhibition rate) Monochoria Vaginalis” value is 5 (Level 5: the growth inhibition rate is greater than 85%).
In the case of `Nc1c(Cl)c(F)nc(OC(C(=O)SCc2ccccc2)c2cncnc2)c1Cl` (stereo not drawn) [Compound 65], the “Activity level (growth inhibition rate) Abutilon theophrasti” value in the test with Abutilon theophrasti is listed as 5 (Level 5: the growth inhibition rate is greater than 85%). Besides, the “Activity level (growth inhibition rate) Galium spurium” value in the test with Galium spurium is on record as 5 (Level 5: the growth inhibition rate is greater than 85%). In the test with Monochoria vaginalis, the “Activity level (growth inhibition rate) Monochoria Vaginalis” value is 5 (Level 5: the growth inhibition rate is greater than 85%).
As to `Nc1c(Cl)c(F)nc(OC(C(=O)OCc2ccccc2)c2ccc3ccccc3c2)c1Cl` (stereo not drawn) [Compound 66], the “Activity level (growth inhibition rate) Abutilon theophrasti” value with Abutilon theophrasti is recorded as 5 (Level 5: the growth inhibition rate is greater than 85%). The “Activity level (growth inhibition rate) Galium spurium” value with Galium spurium is 5 (Level 5: the growth inhibition rate is greater than 85%). The “Activity level (growth inhibition rate) Monochoria Vaginalis” value in the test on Monochoria vaginalis was 5 (Level 5: the growth inhibition rate is greater than 85%).
